From PubChem BioAssay (NCI)
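Each compound was tested at five concentrations against cells in 96-well plates for 48 hours. GI50 = concentration required for 50% inhibition of growth. TGI denotes the concentration required for complete inhibition of growth.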

Experiments:
Assay in all cases: NCI anticancer screen, dose series, 48 h
[1] = system: CAKI-1 renal
[2] = system: A498 renal
[3] = system: COLO 205 colon
[4] = system: ACHN renal
[5] = system: MCF7 breast
[6] = system: NCI/ADR-RES ovarian
[7] = system: SF-539 CNS
[8] = system: BT-549 breast
[9] = system: K-562 leukemia
[10] = system: RPMI-8226 leukemia
[11] = system: M14 melanoma
[12] = system: MDA-MB-231 breast
[13] = system: UACC-62 melanoma
[14] = system: HS 578T breast
[15] = system: HCT-15 colon
[16] = system: A549 NSCLC
[17] = system: HOP-62 NSCLC
[18] = system: SN12C renal
[19] = system: KM12 colon
[20] = system: OVCAR-5 ovarian
[21] = system: MDA-MB-435
[22] = system: HT29 colon
[23] = system: UACC-257 melanoma
[24] = system: OVCAR-8 ovarian
[25] = system: SNB-19 CNS
[26] = system: OVCAR-4 ovarian
[27] = system: IGROV1 ovarian
[28] = system: DU-145 prostate
[29] = system: NCI-H460 lung
[30] = system: HL-60(TB) leukemia
[31] = system: MALME-3M melanoma
[32] = system: HCC-2998 colon
[33] = system: SK-MEL-2 melanoma
[34] = system: NCI-H522 lung
[35] = system: SK-OV-3 ovarian
[36] = system: LOX IMVI melanoma
[37] = system: UO-31 renal
[38] = system: SNB-75 CNS
[39] = system: SF-268 CNS
[40] = system: NCI-H23 lung
[41] = system: T-47D breast
[42] = system: SR leukemia
[43] = system: 786-0 renal
[44] = system: SW-620 colon
[45] = system: SK-MEL-28 melanoma
[46] = system: NCI-H226 lung
[47] = system: SF-295 CNS
[48] = system: HCT-116 colon
[49] = system: TK-10 renal
[50] = system: PC-3 prostate
[51] = system: SK-MEL-5 melanoma
[52] = system: U251 CNS
[53] = system: MOLT-4 leukemia
[54] = system: OVCAR-3 ovarian
[55] = system: CCRF-CEM leukemia
[56] = system: EKVX NSCLC

Question: With `COc1cc(OC)cc(C2C3=C(COC3=O)Nc3cc(OC)ccc32)c1` (configuration not stated) as the molecule, how does the GI50 [1] read?
Answer: Its GI50 is less than 10 nM.

Question: And the TGI [1]?
Answer: Its TGI is greater than 100000 nM.

Question: And the GI50 [2]?
Answer: Its GI50 is less than 10 nM.

Question: What about the TGI [2] of the same molecule?
Answer: The TGI was less than 10.6 nM.

Question: What about the GI50 [3] of the same molecule?
Answer: Its GI50 is less than 10 nM.

Question: What about the TGI [3] of the same molecule?
Answer: The TGI was less than 10 nM.

Question: What about the GI50 [4] of the same molecule?
Answer: The GI50 was less than 10 nM.

Question: What about the TGI [4] of the same molecule?
Answer: The TGI was 33900 nM.

Question: And the GI50 [5]?
Answer: The GI50 was less than 10 nM.

Question: And the TGI [5]?
Answer: Its TGI is 19900 nM.

Question: What about the GI50 [6] of the same molecule?
Answer: Its GI50 is less than 10 nM.

Question: And the GI50 [7]?
Answer: Its GI50 is less than 10 nM.

Question: What about the TGI [7] of the same molecule?
Answer: Its TGI is 15700 nM.

Question: What about the GI50 [8] of the same molecule?
Answer: Its GI50 is 13.8 nM.

Question: What about the TGI [8] of the same molecule?
Answer: The TGI was greater than 100000 nM.

Question: What about the GI50 [9] of the same molecule?
Answer: Its GI50 is less than 10 nM.

Question: What about the TGI [9] of the same molecule?
Answer: The TGI was 13400 nM.

Question: What about the GI50 [10] of the same molecule?
Answer: The GI50 was less than 10 nM.

Question: What about the TGI [10] of the same molecule?
Answer: Its TGI is greater than 43900 nM.

Question: What about the GI50 [11] of the same molecule?
Answer: The GI50 was less than 10 nM.

Question: And the TGI [11]?
Answer: The TGI was 11.1 nM.

Question: And the GI50 [12]?
Answer: Its GI50 is less than 12.8 nM.

Question: What about the GI50 [13] of the same molecule?
Answer: Its GI50 is less than 10 nM.

Question: What about the TGI [13] of the same molecule?
Answer: The TGI was greater than 81200 nM.

Question: What about the GI50 [14] of the same molecule?
Answer: Its GI50 is less than 10 nM.

Question: What about the TGI [14] of the same molecule?
Answer: The TGI was greater than 64300 nM.

Question: What about the GI50 [15] of the same molecule?
Answer: Its GI50 is less than 10 nM.

Question: What about the TGI [15] of the same molecule?
Answer: The TGI was greater than 42600 nM.

Question: And the GI50 [16]?
Answer: Its GI50 is less than 10 nM.

Question: And the TGI [16]?
Answer: The TGI was 27700 nM.

Question: What about the GI50 [17] of the same molecule?
Answer: Its GI50 is less than 10 nM.

Question: What about the TGI [17] of the same molecule?
Answer: The TGI was 21700 nM.

Question: What about the GI50 [18] of the same molecule?
Answer: The GI50 was 14.6 nM.

Question: What about the TGI [18] of the same molecule?
Answer: Its TGI is greater than 77600 nM.

Question: What about the GI50 [19] of the same molecule?
Answer: Its GI50 is less than 10 nM.

Question: What about the TGI [19] of the same molecule?
Answer: Its TGI is less than 10.6 nM.

Question: What about the GI50 [20] of the same molecule?
Answer: The GI50 was less than 20.1 nM.

Question: And the TGI [20]?
Answer: The TGI was greater than 100000 nM.

Question: What about the GI50 [21] of the same molecule?
Answer: The GI50 was less than 10 nM.

Question: What about the TGI [21] of the same molecule?
Answer: Its TGI is less than 10 nM.

Question: And the GI50 [22]?
Answer: Its GI50 is less than 10 nM.

Question: What about the TGI [22] of the same molecule?
Answer: Its TGI is greater than 36600 nM.

Question: What about the GI50 [23] of the same molecule?
Answer: Its GI50 is greater than 36900 nM.

Question: And the TGI [23]?
Answer: Its TGI is greater than 100000 nM.

Question: What about the GI50 [24] of the same molecule?
Answer: The GI50 was less than 14.3 nM.

Question: And the TGI [24]?
Answer: The TGI was greater than 37500 nM.

Question: And the GI50 [25]?
Answer: The GI50 was 17.8 nM.

Question: And the TGI [25]?
Answer: Its TGI is greater than 100000 nM.

Question: What about the GI50 [26] of the same molecule?
Answer: The GI50 was less than 10 nM.

Question: What about the TGI [26] of the same molecule?
Answer: Its TGI is 37600 nM.

Question: What about the GI50 [27] of the same molecule?
Answer: Its GI50 is less than 10 nM.

Question: What about the TGI [27] of the same molecule?
Answer: Its TGI is greater than 94500 nM.

Question: What about the GI50 [28] of the same molecule?
Answer: Its GI50 is less than 10 nM.

Question: And the TGI [28]?
Answer: The TGI was 48.6 nM.

Question: And the GI50 [29]?
Answer: The GI50 was less than 10 nM.

Question: And the TGI [29]?
Answer: Its TGI is 495 nM.

Question: And the GI50 [30]?
Answer: Its GI50 is less than 10 nM.

Question: And the TGI [30]?
Answer: The TGI was less than 18.6 nM.

Question: And the GI50 [31]?
Answer: Its GI50 is 13500 nM.

Question: And the TGI [31]?
Answer: The TGI was greater than 100000 nM.

Question: What about the GI50 [32] of the same molecule?
Answer: The GI50 was less than 10 nM.

Question: What about the GI50 [33] of the same molecule?
Answer: The GI50 was 335 nM.

Question: What about the TGI [33] of the same molecule?
Answer: Its TGI is greater than 100000 nM.

Question: And the GI50 [34]?
Answer: Its GI50 is less than 10 nM.

Question: And the TGI [34]?
Answer: Its TGI is 836 nM.

Question: What about the GI50 [35] of the same molecule?
Answer: Its GI50 is less than 10 nM.

Question: And the TGI [35]?
Answer: The TGI was less than 10 nM.

Question: What about the GI50 [36] of the same molecule?
Answer: Its GI50 is less than 10 nM.

Question: What about the TGI [36] of the same molecule?
Answer: The TGI was greater than 44100 nM.

Question: What about the GI50 [37] of the same molecule?
Answer: Its GI50 is 38.7 nM.

Question: And the TGI [37]?
Answer: The TGI was greater than 67700 nM.

Question: What about the GI50 [38] of the same molecule?
Answer: The GI50 was less than 10 nM.

Question: And the TGI [38]?
Answer: The TGI was 24100 nM.

Question: What about the GI50 [39] of the same molecule?
Answer: The GI50 was less than 10.6 nM.

Question: And the TGI [39]?
Answer: Its TGI is greater than 61800 nM.

Question: And the GI50 [40]?
Answer: The GI50 was less than 10 nM.

Question: And the TGI [40]?
Answer: Its TGI is greater than 43700 nM.

Question: And the GI50 [41]?
Answer: The GI50 was less than 10 nM.

Question: And the TGI [41]?
Answer: The TGI was greater than 100000 nM.

Question: What about the GI50 [42] of the same molecule?
Answer: Its GI50 is less than 10 nM.

Question: And the GI50 [43]?
Answer: Its GI50 is 20.3 nM.

Question: What about the TGI [43] of the same molecule?
Answer: Its TGI is 30900 nM.

Question: What about the GI50 [44] of the same molecule?
Answer: The GI50 was less than 10 nM.

Question: And the TGI [44]?
Answer: The TGI was greater than 70800 nM.

Question: And the GI50 [45]?
Answer: The GI50 was less than 10 nM.

Question: What about the TGI [45] of the same molecule?
Answer: The TGI was greater than 94200 nM.

Question: What about the GI50 [46] of the same molecule?
Answer: The GI50 was less than 10 nM.

Question: And the TGI [46]?
Answer: The TGI was 20.7 nM.

Question: And the GI50 [47]?
Answer: Its GI50 is less than 10 nM.

Question: And the TGI [47]?
Answer: Its TGI is 28200 nM.

Question: And the GI50 [48]?
Answer: The GI50 was less than 10 nM.

Question: What about the TGI [48] of the same molecule?
Answer: The TGI was 413 nM.

Question: And the GI50 [49]?
Answer: The GI50 was 22200 nM.

Question: What about the TGI [49] of the same molecule?
Answer: Its TGI is greater than 92500 nM.

Question: And the GI50 [50]?
Answer: Its GI50 is less than 10 nM.

Question: What about the TGI [50] of the same molecule?
Answer: Its TGI is greater than 42300 nM.

Question: What about the GI50 [51] of the same molecule?
Answer: Its GI50 is less than 10 nM.

Question: And the TGI [51]?
Answer: Its TGI is 17.8 nM.

Question: And the GI50 [52]?
Answer: Its GI50 is less than 10 nM.

Question: And the TGI [52]?
Answer: Its TGI is greater than 43800 nM.

Question: And the GI50 [53]?
Answer: Its GI50 is less than 10 nM.

Question: What about the GI50 [54] of the same molecule?
Answer: Its GI50 is less than 10 nM.

Question: What about the TGI [54] of the same molecule?
Answer: The TGI was less than 10 nM.

Question: And the GI50 [55]?
Answer: The GI50 was less than 10 nM.

Question: And the TGI [55]?
Answer: The TGI was greater than 100000 nM.

Question: And the GI50 [56]?
Answer: Its GI50 is less than 10 nM.

Question: What about the TGI [56] of the same molecule?
Answer: The TGI was greater than 100000 nM.
